Measurements as given in patent publication US11767286B2, “Phenylpropionate compound, preparation method for same, and applications thereof” (SUZHOU PHARMAVAN CO., LTD, priority 2017, dated 2023).
Like-named read-outs stand apart in the source and are kept apart here.

Assays:
[1] = tested on: platelet aggregation induced with a platelet activating factor; test: Maximum platelet aggregation rate of rabbits, induced with PAF; type: cell-based; settings: rabbit plasma, 4 mg/kg as printed; for inhibition at 4 mg/kg: Oryctolagus cuniculus, Platelet, n=3, read-out: Inhibiton rate on Aggregation; for Maximum Aggregation Rate: n=3
Method: (§1) Effects on maximum platelet aggregation rate of rabbits: 3 Rabbits were anesthetized, and blood was collected from the heart to obtain 14 parts of plasma for each rabbit (1 ml per part of plasma). 7 Parts were induced with ADP to allow platelet aggregation, and 7 parts were induced with a platelet activating factor. After the induction, a solvent, positive control drug aspirin, and 5 samples to be trialed were separately added to the plasma, and maximum platelet aggregation rate was detected with a platelet aggregation meter. The trials were repeated 3 times, and an average was taken. Detected indicator: maximum platelet aggregation rate.
(§2) Table 4 lists results of effects of phenylpropionate compounds (4 mg/kg) on platelet aggregation rate of rabbits (n=3).

[2] = tested on: SD rats; test: Acute toxicity, single-dose intravenous injection in SD rats; type: in vivo; settings: for tolerance: single-dose intravenous injection (5, 10, 20 mg/kg); for toxic side effects: single-dose intravenous injection up to 20 mg/kg, observed to day 8
Description: In this example, Compound A and Compound C were studied for acute toxicity by a method described below.
Trial method: 30 SD rats, half male and half female, were used. The average weight was 160-200 g for female rats and 180-220 g for male rats when grouped. An individual weight should be within ±20% of the average weight. Before trial, animals were accommodated environment for at least 5 days, and healthy rats (female rats should be not pregnant) were selected as trial animals. Matter inspected during the accommodation period mainly was: whether the rats were consistent with quality indicators required in the order; inspection of general condition; and whether the weight was within the weight range required by the trial. Unqualified abnormal animals were excluded from the trial. A single dosage was injected through tail veins of rats at low, medium, or high dose. The doses were adjusted to be 5 mg/kg, 10 mg/kg, and 20 mg/kg, respectively according to blank preparation pre-trials. A control group was set in which a same volume of vehicle was intravenously injected.
The rats were observed about 0-2 h and 4-6 h after each administration. If a toxicity symptom occurs, the animal may be observed more times. (2) Gross anatomical observation: On the 8th day of the trial, all surviving rats in each group were dissected and observed, and administration sites and abnormal organs and tissues which were identified through gross anatomical observation to be potentially related to trial samples were photographed and recorded. (3) Disposal of dying animals: Status of rats and observation time were recorded, and their weights were measured. (4) Disposal of dead animals: The time of death or when a rat was found dead were recorded. The rat was measured for weight before quickly dissected for gross observation and speculated for cause of death.

[3] = tested on: rats with acute cerebral ischemia-reperfusion; test: Cerebral infarction area of rats with acute cerebral ischemia-reperfusion (MCAO, suture method); type: in vivo, SD rats; design: Cerebral Infarction Area: unit not given here; settings: n=5; for Cerebral Infarction Area: 4 mg/kg iv 2 h after reperfusion (2 h MCAO), sampled 4 h after administration; for inhibition in vivo at 4 mg/kg: Rattus norvegicus, 4 h, 4 mg/kg iv 2 h after reperfusion, vs solvent control, read-out: Percentage of Cerebral Infarction Area Reduction
Method: (§3) Trial method: Effects on inflammatory factors and blood viscosity of rats with acute cerebral ischemia-reperfusion: 70 Male SD rats underwent an MACO surgery by a suture method, and after the surgery, alive rats were randomly grouped (into 7 groups, the number of successful animals in each group was guaranteed to be 6 to 8). Blood perfusion was recovered 2 h after MCAO, and corresponding trial medicaments were intravenously injected 2 h after blood reperfusion. 4 hours after the administration, blood was collected and the rats were sacrificed to take out brain tissues. The brain tissues and part of the blood were centrifuged to collect serum which was detected for inflammatory factors, and part of the blood was detected for blood viscosity by using a blood viscometer. Detected indicators: cerebral infarction area; inflammatory factors IL-1β and TNF-α; and blood viscosity.
Table 1 lists results of effects of phenylpropionate compounds (4 mg/kg) on cerebral infarction area of rats with acute cerebral ischemia (n=5).

[4] = tested on: platelet aggregation induced with ADP; test: Maximum platelet aggregation rate of rabbits, induced with ADP; type: cell-based; settings: rabbit plasma, 4 mg/kg as printed, n=3; for inhibition at 4 mg/kg: Oryctolagus cuniculus, Platelet
Method: as §1, §2

[5] = tested on: rats with acute cerebral ischemia-reperfusion; test: Blood viscosity of rats with acute cerebral ischemia-reperfusion (blood viscometer); type: in vivo, SD rats; design: unit not given here; settings: 4 mg/kg iv 2 h after reperfusion; blood 4 h after administration; n=5
Method: as §3
Table 2 lists results of effects of phenylpropionate compounds (4 mg/kg) on blood viscosity of rats (n=5).

[6] = tested on: IL-1β; test: Inflammatory factor IL-1β in blood and brain tissues of rats with acute cerebral ischemia-reperfusion; type: in vivo, SD rats; settings: 4 mg/kg iv 2 h after reperfusion; 4 h after administration; n=5
Method: as §3
(§4) Table 3 lists results of effects of phenylpropionate compounds (4 mg/kg) on inflammatory factors in blood and brain tissues of rats (n=5).

[7] = tested on: TNF-α; test: Inflammatory factor TNF-α in blood and brain tissues of rats with acute cerebral ischemia-reperfusion; type: in vivo, SD rats; settings: 4 mg/kg iv 2 h after reperfusion; 4 h after administration; n=5
Method: as §3, §4

[8] = Distribution in brain: plasma and intracerebral concentrations after intravenous injection; type: in vivo; settings: both sexes, rat, rats, 4 mg/kg iv; for Kp at 10 min / Kp at 60 min / Kp at 180 min: brain/plasma, read-out: Brain/Blood Concentration Ratio
Method: In this example, Compounds A to E, D-bornyl ferulate, and D-tanshinol borneol ester were measured for distribution in brain. Structures of D-bornyl ferulate (Patent Application No.: 201510243181.5) and D-tanshinol borneol ester compounds are as follows:
Method for testing distribution in brain: 42 rats with a weight range of 200±20 g were taken. The rats were randomly divided into 7 groups, with 6 rats per group, half male and half female. Rats were fasted with free access to water for 12 h and then intravenously injected with 4 mg/kg of a compound. Rats in the 3 groups were sacrificed through femoral artery bleeding and collected for blood 10 min, 60 min, 180 min after administration, respectively. Brains were taken out, 0.2 g was weighted, and 1 mL of pure water was added for homogenizing. The blood samples and brain homogenate samples were stored at −20° C.
Distribution of Compounds A to E, and D-bornyl ferulate and D-tanshinol borneol ester compounds in brain: Data on concentrations of Compounds A to E, D-bornyl ferulate, and D-tanshinol borneol ester in plasma and intracerebral in rats intravenously injected with 4 mg/kg of Compounds A to E, D-bornyl ferulate, and D-tanshinol borneol ester are listed in Table 9.

[9] = brain, read-out: Mean Intracerebral Concentration
[10] = plasma, read-out: Mean Plasma Concentration

SMILES | inhibition at 4 mg/kg [1] [%] | Maximum Aggregation Rate [1] [%] | tolerance [2] [mg/kg] | toxic side effects [2] | Cerebral Infarction Area [3] | inhibition in vivo at 4 mg/kg [3] [%] | inhibition at 4 mg/kg [4] [%] | Maximum Aggregation Rate [4] [%] | Blood viscosity, High Shear [5] | Blood viscosity, Low Shear [5] | IL-1β [6] [ng/L] | TNF-α [7] [ng/L] | Kp at 10 min [8] | Kp at 60 min [8] | Kp at 180 min [8] | concentration at 10 min [8, 9] [ng/g] | concentration at 60 min [8, 9] [ng/g] | concentration at 180 min [8, 9] [ng/g] | concentration at 10 min [8, 10] [µg/mL] | concentration at 60 min [8, 10] [µg/mL] | further results
COc1cc(CCC(=O)O[C@H]2C[C@H]3CC[C@]2(C)C3(C)C)cc(OC)c1O [Compound C] | 52.9 | 33.6 ± 7.9 | 20 | no obvious toxic side effects | 19.6 ± 5.38 | 46.6 | 56.5 | 14.3 ± 5.64 | 2.70 ± 0.982 | 13.9 ± 1.014 | 59.3 ± 8.7 | 634 ± 25.1 | 2.9 | 11 | 2 | 2630 ± 167 | 1870 ± 406 | 188 ± 51.9 | 0.906 ± 0.145 | 0.16 ± 0.0491 | concentration at 180 min [8, 10]: 0.0922 ± 0.0355 µg/mL
COc1cc(CCC(=O)O[C@H]2C[C@H]3CC[C@]2(C)C3(C)C)cc(F)c1O [Compound A] | 60.2 | 28.4 ± 6.4 | 20 | no obvious toxic side effects | 18.6 ± 2.65 | 49.3 | 52.3 | 15.7 ± 6.31 | 2.56 ± 0.057 | 13.2 ± 0.535 | 53.8 ± 6.4 | 615 ± 42.9 | 2.6 | 5.7 | 3.2 | 2640 ± 517 | 1420 ± 309 | 311 ± 115 | 1.02 ± 0.192 | 0.252 ± 0.0765 | concentration at 180 min [8, 10]: 0.0973 ± 0.0227 µg/mL
